In the METLIN SMRT retention time set (Domingo-Almenara et al. 2019) one finds RP-LC retention time data, which are given here for 59 compounds.

This series in a line: gradient 5% acetonitrile 3 min, to 50% in 2 min, to 85% in 15 min, held 3 min, 100 µL/min. The following applies: column: Zorbax Extend-C18 2.1 x 50 mm; eluents: water / acetonitrile, 0.1% formic acid. In a few lines:
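In both positive and negative ionization mode, a quadrupole time-of-flight mass spectrometer coupled to HPLC analyzed pure standards run in mixtures of ~100 molecules. The Zorbax Extend-C18 column (2.1 × 50 mm, 1.8 μm) was operated at 100 μL/min with water and acetonitrile, each containing 0.1% formic acid. The dead volume was 40 μL and the dwell volume 900 μL. Retention time came from adduct peaks that were computationally picked and individually inspected by hand.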
Regarding `Cc1ccc(C2C=CC(C#N)=CN2Cc2ccccc2)cc1` (centres undefined), the RP-LC retention time amounted to 1210 s. Under `CCSc1nnc(-c2nn(C)c3c2CN(C(=O)C2CCCCC2)CC3)n1C` stands 791 s. Under `CC(NC(=O)c1ccco1)c1nc(-c2ccc(N3CCCCCC3)cc2)no1` (centres undefined) stands 1110 s; under `CCCn1cc(S(=O)(=O)Nc2ccc(F)cc2Cl)c2cccnc21`, 989 s; under `O=C(NCCc1ccc(N2CCCC2)cc1)C(=O)Nc1ccc(OC(F)(F)F)cc1`, 1090 s. Under `CN(CCc1noc(-c2ccc(F)cc2)n1)C(=O)Nc1cc(F)ccc1F` stands 924 s; under `COc1cc(Nc2c(C(=O)N3CCCC3)cnc3nc(C)ccc23)cc(OC)c1OC`, 592 s. Turning to `O=C(Cn1nc(S(=O)(=O)c2ccc(Cl)cc2)ccc1=O)N1CCN(c2ccccc2F)CC1`, the RP-LC retention time was 937 s. Consider `c1ccc(-c2nc(-c3ccnc(N4CCOCC4)c3)no2)cc1`, for which the RP-LC retention time amounted to 942 s. As for `COc1ccc(-c2nc3cc(C)ccn3c2NC(=O)CC(C)C)cc1`, the figure is 628 s. Under `COc1cccc(CNC(=O)N2CCC(CC(=O)NCc3ccccc3)CC2)c1` stands 736 s; under `CN1C(=O)c2cc(S(=O)(=O)NCc3ccc(Cl)cc3)ccc2Oc2cccnc21`, 968 s. As for `COc1cc(-c2nc3ncccn3c2Nc2ccc(C)c(Cl)c2)ccc1O`, the figure is 704 s. As to `COCCN(CC(=O)N1CCc2sccc2C1COc1cccc(F)c1)C(=O)C(C)C` (centres undefined), the RP-LC retention time worked out at 912 s. `O=C(Cn1cccc1-c1nc(-c2ccccc2)cs1)NCc1ccco1` displayed an RP-LC retention time of 1030 s. As for `Cc1nc2cc(N3CC(C(=O)Nc4ccc(Br)c(C)c4)CC3=O)ccc2o1` (centres undefined), the figure is 846 s; as for `CCOCCCNC(=O)c1nnc(-c2ccc(S(=O)(=O)N3CCCC3)cc2)o1`, 786 s; as for `O=C(c1ccc(C(F)(F)F)cc1)N1CCN(c2nc(CN3CCCCC3)cs2)CC1`, 684 s. `CCN(CC)CCCNC(=O)C1CCCN(c2nc3ccccc3n(Cc3ccccc3)c2=O)C1` (centres undefined) displayed an RP-LC retention time of 726 s. Take `CCc1cccc2cc([C@@H](O)CNC(C)(C)C)oc12`: the RP-LC retention time was determined as 737 s.

Compound `Cc1ccccc1NC(=O)NCCc1cn(CC(C)C)c2ncccc12` registered an RP-LC retention time of 808 s.

The compound `CC(=O)N1c2ccc(S(=O)(=O)N3CCCC3)cc2CC1C(=O)NCc1ccc(N(C)C)cc1` (centres undefined) yielded an RP-LC retention time of 620 s. In the case of `COc1cccc(NC(=O)Cn2c(=O)c3cc(-c4ccco4)nn3c3ncccc32)c1`, the RP-LC retention time stood at 807 s. Under `CCc1nc2onc(C)c2c(=O)n1CC(=O)NCc1ccc(F)cc1` stands 783 s; under `C=CCN1N=C(C(=O)N2CCC(C)CC2)S(=O)(=O)c2ccc(Cl)cc21`, 997 s; under `CCOC(=O)c1cccc(NC(=O)c2cc(C)nn2-c2ccccc2)c1`, 936 s. For the compound `Cc1cccc(NS(=O)(=O)c2cc(-c3[nH]ncc3C(=O)N(C)C)oc2C)c1C`, the RP-LC retention time is 712 s. Under `Cc1ccc(CS(=O)(=O)N[C@@H]2CN(c3ncccn3)C[C@H]2CN(C)C)cc1` stands 619 s; under `CCN(CC)C(=O)c1cnc2snc(C)c2c1N1CCC(C(=O)Nc2ccc(Br)cc2)CC1`, 990 s. Compound `COCCCNC(=O)Cn1nc2cc(C)nc(-c3ccc(C(F)(F)F)cc3)n2c1=O` registered an RP-LC retention time of 765 s. Under `COc1ccc(C(=O)N2CCC(COc3ccc(C(=O)NC(C)C)cc3)CC2)cc1` stands 820 s. `Cc1ccc(CS(=O)(=O)N2CCc3nc(-c4ccc(F)cc4)ncc3C2)cc1` displayed an RP-LC retention time of 1110 s. `C=CCN1CC[C@]23CCCCC2[C@H]1Cc1ccc(O)cc13` (some centres undefined) showed an RP-LC retention time of 691 s. As for `COc1ccc(OC)c(NC(=O)C2CC(=O)N(c3n[nH]c4cccc(F)c34)C2)c1` (centres undefined), the figure is 732 s. As for `CCCN(C(=O)c1ccccc1F)c1nc(-c2ccc(C)cc2)cs1`, the figure is 1410 s; as for `COc1cccc(-c2ccnc3nc(Cc4cc(F)cc(F)c4)nn23)c1`, 945 s; as for `Cc1noc(C2CN(C(=O)NCc3cccc(F)c3)CC23CCOCC3)n1` (centres undefined), 706 s.

`Cc1cc(C)cc(NC(=O)c2cnc(-c3ccccc3)nc2-c2ccncc2)c1`: the RP-LC retention time stood at 988 s. For `Cc1nc(-c2cccc(C(=O)N3CCN(c4nc5cccnc5o4)CC3)c2)no1`, the RP-LC retention time stood at 688 s.

Compound `CCOc1ccc(NC(=O)C2(C)Oc3cccnc3N(C(C)C)C2=O)cc1` (centres undefined) came in with an RP-LC retention time of 1000 s. As to `CCn1ncn2cc(S(=O)(=O)Nc3ccccc3C)cc2c1=O`, the RP-LC retention time was found to be 863 s.

In turn, `CCCn1c(=O)c(C)nc2cc(-c3noc(-c4ccc(F)c(F)c4)n3)ccc21` had an RP-LC retention time of 1230 s. As for `O=C1CC(c2nc(-c3ccc(Cl)cc3)no2)CN1c1ccc2c(c1)OCCO2` (centres undefined), the figure is 1040 s; as for `Cc1oc(C(C)C)nc1C(=O)NCc1ccc(C(F)(F)F)cc1`, 1060 s; as for `COc1cc(CN2CC[C@@H]3CN(S(C)(=O)=O)[C@@H]3C2)ccc1F`, 598 s.

On to `Cc1cc(NC(=O)c2cc3c(=O)n4cccc(C)c4nc3s2)no1`, for which the RP-LC retention time was determined as 792 s.

Turning to `CCOC(=O)C(C)NC(=O)N1CCN(Cc2nc3cccnc3n2-c2ccc(CC)cc2)CC1` (centres undefined), the RP-LC retention time turned out to be 659 s. As for `CN1CCN(CCCNC(=O)c2ccc(NC(=O)C3=CSCCO3)cc2)CC1`, the figure is 876 s; as for `CC(C)c1nncn1C1CCN(S(=O)(=O)c2ccccc2Cl)CC1`, 716 s. As for `Cc1noc(/C=C\c2ccc(S(=O)(=O)N3CCOCC3)cc2)c1NC(=O)C1CC1`, the figure is 777 s; as for `O=C(O)c1ccc2c(c1)n(Cc1cccc(F)c1)c(=O)c1ccnn12`, 784 s; as for `CCOC(=O)c1noc2nc(C)nc(NCCc3ccc(OCC)cc3)c12`, 1170 s.

On to `CC1=C(c2ccc(F)cc2)S(=O)(=O)N=C1N1CCCN(C(=O)c2cccc(C)c2)CC1`, for which the RP-LC retention time amounted to 859 s. Under `CCCN1CCN(C(=O)C2CCN(S(=O)(=O)c3ccc4c(c3)NC(=O)C(C)S4)CC2)CC1` (centres undefined) stands 593 s; under `O=C(/C=C/c1cccnc1)c1ccccc1O`, 817 s. Consider `Cc1ccc(CN(C(=O)c2ccc(OCC(C)C)cc2)C2CCS(=O)(=O)C2)o1` (centres undefined), for which the RP-LC retention time is 1060 s.

Compound `O=C(Nc1nc(-c2ccncc2)cs1)C1CCCCC1` came in with an RP-LC retention time of 588 s.

With `CONC(=O)Cc1csc(Nc2cc(C)ccn2)n1`, the RP-LC retention time turned out to be 526 s. Under `O=C(NC1CC1)c1nc(-c2cccs2)cs1` stands 835 s.
